Results as given in PMC12444472, “BCI inhibits MKP3 by targeting the kinase-binding domain and disrupting ERK2 interaction” (The Journal of Biological Chemistry, 2025).
Numbering of substitutions follows the chain as printed.

Columns and labels:
Test in all cases: Phosphatase activity of MKP3 mutant toward pNPP with ERK2
Assay type in all cases: biochemical
Conditions in all cases: 1 µM enzyme, 1 µM ERK2, 8 mM pNPP, 2.5 μM BCI
[1] = molecular target: T1, MKP3 R85G (Homo sapiens, UniProt Q16828, R85G)
T1 construct: MKP3(1–381) (MKP3^FL); made in house; host or cells: Escherichia coli BL21(DE3)
T1 sequence (Q16828 1-381 R85G): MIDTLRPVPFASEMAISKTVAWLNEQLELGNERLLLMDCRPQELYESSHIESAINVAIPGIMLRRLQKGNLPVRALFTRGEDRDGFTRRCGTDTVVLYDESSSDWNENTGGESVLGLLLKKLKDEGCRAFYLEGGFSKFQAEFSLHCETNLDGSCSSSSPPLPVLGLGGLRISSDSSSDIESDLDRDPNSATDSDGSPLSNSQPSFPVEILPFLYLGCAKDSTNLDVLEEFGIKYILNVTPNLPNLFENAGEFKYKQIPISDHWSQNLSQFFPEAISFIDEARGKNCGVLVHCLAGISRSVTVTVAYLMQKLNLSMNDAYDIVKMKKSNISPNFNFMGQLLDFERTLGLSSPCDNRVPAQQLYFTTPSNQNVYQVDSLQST
Description: (§1) The phosphatase activity of MKP3 toward pNPP was measured using continuous spectrophotometric assays, either in the absence or the presence of ERK2 at a 1:1 M ratio with MKP3. Experiments were conducted at 25 °C in a reaction mixture with a total volume of 1.8 ml, containing 50 mM Mops (pH 7.0), 100 mM NaCl, and 0.1 mM EDTA. MKP3 (1 μM) was preincubated with varying concentrations of the inhibitor BCI for 5 min before initiating the reaction by adding pNPP at concentrations ranging from 0 to 14 mM. Continuous absorbance changes were recorded using a PerkinElmer LAMBDA 45 spectrophotometer equipped with a magnetic stirrer in the cuvette holder. The production of p-nitrophenol was monitored at 410 nm using an extinction coefficient of 18,000 M^-1 cm^-1.
(§2) Figure S2. Inhibition of full-length MKP3 mutant activity by BCI. The phosphatase activities (v0) of full-length MKP3 and its mutants (E81G, R83G, R85G, R87G, and R89A) at 1 µM concentration were measured using continuous spectrophotometric assays with 8 mM pNPP as the substrate, in the presence of ERK2 (1 µM), either without or with 2.5 μM BCI. Data are presented as mean ± SD (n = 3). Reactions were performed at 25 °C in a total volume of 1.8 mL, in a buffer containing 50 mM MOPS (pH 7.0), 100 mM NaCl, and 0.1 mM EDTA.

[2] = molecular target: T2, MKP3 T87G (Homo sapiens, UniProt Q16828, T87G)
T2 construct: MKP3(1–381) (MKP3^FL); made in house; host or cells: Escherichia coli BL21(DE3)
T2 sequence (Q16828 1-381 T87G): T1 sequence (Q16828 1-381 R85G) with G85R, T87G
Description: as §1, §2

[3] = molecular target: T3, MKP3 E81G (Homo sapiens, UniProt Q16828, E81G)
T3 construct: MKP3(1–381) (MKP3^FL); made in house; host or cells: Escherichia coli BL21(DE3)
T3 sequence (Q16828 1-381 E81G): T1 sequence (Q16828 1-381 R85G) with E81G, G85R
Description: as §1, §2

[4] = molecular target: T4, MKP3 R83G (Homo sapiens, UniProt Q16828, R83G)
T4 construct: MKP3(1–381) (MKP3^FL); made in house; host or cells: Escherichia coli BL21(DE3)
T4 sequence (Q16828 1-381 R83G): T1 sequence (Q16828 1-381 R85G) with R83G, G85R
Description: as §1, §2

[5] = molecular target: T5, MKP3 R89A (Homo sapiens, UniProt Q16828, R89A)
T5 construct: MKP3(1–381) (MKP3^FL); made in house; host or cells: Escherichia coli BL21(DE3)
T5 sequence (Q16828 1-381 R89A): T1 sequence (Q16828 1-381 R85G) with G85R, R89A
Description: as §1, §2

O=C1/C(=C/c2ccccc2)C(NC2CCCCC2)c2ccccc21 (centres unmarked) [BCI, (E)-2-benzylidene-3-(cyclohexylamino)-2,3-dihydro-1H-inden-1-one]
enzymatic activity upon BCI addition compared with MKP3^WT [1]: BCI inhibition comparable to MKP3^WT
enzymatic activity upon BCI addition compared with MKP3^WT [2]: BCI inhibition comparable to MKP3^WT
enzymatic activity upon BCI addition compared with MKP3^WT [3]: higher enzymatic activity than WT MKP3
enzymatic activity upon BCI addition compared with MKP3^WT [4]: higher enzymatic activity than WT MKP3
enzymatic activity upon BCI addition compared with MKP3^WT [5]: higher enzymatic activity than WT MKP3
